{"source": "patent US8557814B2", "about": "“mTOR inhibitor salt forms” (OSI Pharmaceuticals, LLC, priority 2008, dated 2013)", "key": {"[1]": {"assay": "Solubility in water", "format": "physicochemical"}, "[2]": {"assay": "Vapor sorption analysis (DVS), hygroscopicity", "format": "physicochemical"}, "[3]": {"molecular_target": "T1, mTOR (Homo sapiens, UniProt P42345)", "T1 construct": "endogenous in cells; host or cells: MDA-MB-231 cells", "assay": "mTOR cell-based mechanistic assay: inhibition of phosphorylation of 4E-BP1 (T37/46) in MDA-MB-231 cells", "conditions": "3 h treatment", "procedure": "MDA-MB-231 cells were plated in 96 well plates at 2×10^4 cells/well in 90 uL of Complete growth medium and incubated at 37° C. overnight in a CO2 incubator. […] Cell lysates' were transferred to a 96-well plate coated with 4E-BP1 antibodies to capture phospho-4E-BP1 (T37/46) and incubated overnight at 4° C. The amount of phospho-4E-BP1 in each well is further measured by incubating the wells with anti-rabbit phospho-4E-BP1 (T37/46) antibodies and a corresponding goat anti-rabbit IgG conjugated to HRP. The amount of HRP present in each well is measured by a chemiluminescence method, which corresponds to amount of phospho-4E-BP1 in each well. IC50 values were determined using a 6-point dose response curve."}, "[4]": {"assay": "Stability at 40° C. and 75% RH", "format": "physicochemical", "conditions": "30 days at 40° C. and 75% RH"}}, "note": "Structures can show the parent of a compound that is named as a salt. Where two headings read alike, the source gives them in different places."}
{"molecule": "COc1cccc2cc(-c3nc([C@H]4CC[C@H](C(=O)O)CC4)n4ncnc(N)c34)[nH]c12", "note": "[Example 3, trans-4-[4-amino-5-(7-methoxy-1H-indol-2-yl)imidazo[5,1-f][1,2,4]triazin-7-yl]cyclohexanecarboxylic acid sodium salt]", "values": [{"measurement": "solubility in water", "setting": "[1]; sodium salt", "result": "> 30", "unit": "mg/mL"}]}
{"molecule": "trans-4-[4-amino-5-(7-methoxy-1H-indol-2-yl)imidazo[5,1-f][1,2,4]triazin-7-yl]cyclohexane carboxylic acid calcium salt [Example 2]", "values": [{"measurement": "hygroscopicity, weight gain (DVS)", "setting": "[2]; from 0 to 95% RH", "result": 35, "unit": "%"}]}
{"molecule": "COc1cccc2cc(-c3nc([C@H]4CC[C@H](C(=O)O)CC4)n4ncnc(N)c34)[nH]c12", "note": "[trans-4-[4-amino-5-(7-methoxy-1H-indol-2-yl)-imidazo[5,1-f][1,2,4]triazin-7-yl]cyclohexanecarboxylic acid]", "values": [{"measurement": "IC50", "setting": "[3]", "result": "~1000", "unit": "nM"}]}
{"molecule": "COc1cccc2cc(-c3nc([C@H]4CC[C@H](C(=O)O)CC4)n4ncnc(N)c34)[nH]c12", "note": "[Example 1, trans-4-[4-amino-5-(7-methoxy-1H-indol-2-yl)imidazo[5,1-f][1,2,4]triazin-7-yl]cyclohexane carboxylic acid tromethamine salt]", "values": [{"measurement": "hygroscopicity (DVS)", "setting": "[2]; at 90-95% RH", "result": "2-4%"}, {"measurement": "solubility in water", "setting": "[1]", "result": "approximately 6 mg/mL"}, {"measurement": "stability (degradation)", "setting": "[4]", "result": "no significant degradation"}]}
